# Test results reported in the supplement of paper PMC10307832.
# Experiments:
# Experiment in all cases: relative viability (nuclei count vs DMSO), 5 days (fraction); higher = more cells survive
# [1] = compound: CNC(=O)c1ccccc1Sc1ccc2c(/C=C/c3ccccn3)n[nH]c2c1 [Axitinib] + N=C(N)NC(=N)NCCc1ccccc1 [Phenformin] (partner 250 µM)
# Method in brief: (§1)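 Lung cancer cell lines in 1536-well plates were dosed by pin tool the day after seeding, either with one drug alone or with a fixed anchor-drug dose plus five library-drug doses (not always all listed) in √10 steps. After 5 days, cells were fixed and their nuclei stained in one step (final 0.05% Triton X-100, 1% formaldehyde, 1 ug/ml Hoechst), then counted on 4× images. Relative viability is the nuclei count in treated wells divided by that in vehicle wells. Values are medians of duplicate plates.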
# [2] = compound: CNC(=O)c1ccccc1Sc1ccc2c(/C=C/c3ccccn3)n[nH]c2c1 [Axitinib] + C[C@@H](Oc1cc(-c2cnn(C3CCNCC3)c2)cnc1N)c1c(Cl)ccc(F)c1Cl [Crizotinib] (partner 1 µM)
# Method in brief: as §1
# [3] = compound: CC1=CC=C(C=C1)C(=O)CN2C3=C(CCCC3)SC2=N [Pifithrin_alpha] + N=C(N)NC(=N)NCCc1ccccc1 [Phenformin] (partner 250 µM)
# Method in brief: as §1
# [4] = compound: Nc1nc(Nc2ccc3c(c2)CC[C@@H](N2CCCC2)CC3)nn1-c1cc2c(nn1)-c1ccccc1CCC2 [Bemcentinib] + Cc1cc(Nc2cc(N3CCN(C)CC3)nc(Sc3ccc(NC(=O)C4CC4)cc3)n2)n[nH]1 [Tozasertib] (partner 0.1 µM)
# Method in brief: as §1
Cell Line,relative viability ([1]; first compound 0.005 µM),relative viability ([1]; first compound 0.01581 µM),relative viability ([1]; first compound 0.05 µM),relative viability ([1]; first compound 0.1581 µM),relative viability ([1]; first compound 0.5 µM),relative viability ([2]; first compound 0.005 µM),relative viability ([2]; first compound 0.01581 µM),relative viability ([2]; first compound 0.05 µM),relative viability ([2]; first compound 0.1581 µM),relative viability ([2]; first compound 0.5 µM),relative viability ([3]; first compound 1 µM),relative viability ([3]; first compound 3.162 µM),relative viability ([3]; first compound 10 µM),relative viability ([3]; first compound 31.62 µM),relative viability ([3]; first compound 100 µM),relative viability ([4]; first compound 0.04 µM),relative viability ([4]; first compound 0.1265 µM),relative viability ([4]; first compound 0.4 µM),relative viability ([4]; first compound 1.265 µM),relative viability ([4]; first compound 4 µM)
NCI-H1563,0.778,0.654,0.625,0.616,0.667,0.957,0.791,0.877,0.833,0.907,0.622,0.706,0.643,0.601,0.616,–,–,–,–,–
EMC-BAC-2,0.552,0.535,0.483,0.547,0.57,0.819,0.859,0.766,0.754,0.719,0.504,0.511,0.478,–,0.556,0.264,0.281,0.285,0.305,0.301
NCI-H596,0.735,0.784,0.841,0.746,0.638,1.03,1.06,1.06,0.993,0.495,0.761,0.737,0.84,0.766,0.494,0.87,1.05,1.14,0.94,0.799
NCI-H2009,0.492,0.497,0.506,0.513,0.577,1.17,1.14,1.01,1.08,1.16,0.483,0.467,0.451,0.345,0.422,0.741,0.785,0.765,0.569,0.677
HOP-62,0.73,0.63,0.742,0.665,0.853,0.941,1.1,0.93,0.981,0.929,0.601,0.903,0.749,0.59,0.81,0.379,0.413,0.35,0.39,0.387
NCI-H2126,0.528,0.555,0.548,0.552,0.564,1.08,0.998,0.928,0.97,1.02,0.475,0.498,0.499,0.464,0.427,0.896,0.822,0.788,0.856,0.837
HCC-15,0.469,0.458,0.51,0.472,0.464,0.907,0.84,0.793,0.696,0.825,0.487,0.449,0.435,0.249,0.279,0.381,0.488,0.401,0.365,0.392
NCI-H23,0.577,0.842,0.857,0.708,0.847,0.532,0.529,0.619,0.436,0.656,0.853,0.734,0.764,–,0.753,0.389,0.632,0.327,0.407,0.366
LCLC-97TM1,0.458,0.381,0.43,0.47,0.314,0.433,0.524,0.265,0.377,0.314,0.46,0.479,0.459,0.435,0.475,0.214,0.214,0.22,0.246,0.186
SW 1573,0.465,0.37,0.398,0.295,0.408,0.745,0.844,0.905,0.917,0.913,0.357,0.39,0.436,0.37,0.346,0.18,0.166,0.174,0.129,0.194
EKVX,0.243,0.222,0.214,0.233,0.216,1.03,0.896,0.785,0.904,0.958,0.207,–,0.201,0.213,0.199,0.39,0.468,0.39,0.437,0.374
HCC-44,0.165,0.27,0.211,0.198,0.176,0.898,0.834,0.841,0.792,0.869,0.17,0.164,0.171,0.133,0.178,0.913,1.46,0.872,0.956,0.888
NCI-H1651,0.295,0.295,0.347,0.304,0.353,0.904,0.858,0.707,0.842,0.861,0.345,0.351,0.387,0.26,0.317,0.671,0.835,0.87,0.77,0.635
COR-L23,0.458,0.417,0.428,0.419,0.485,0.696,0.564,0.596,0.623,0.778,0.465,0.46,0.426,–,0.509,0.232,0.167,0.225,0.211,0.183
NCI-H1299,–,–,–,–,–,0.997,0.947,0.986,1,1.04,–,–,–,–,–,–,–,–,–,–
NCI-H1734,0.423,0.401,0.371,0.404,0.366,0.683,0.765,0.679,0.758,0.868,0.358,0.456,0.372,0.362,0.376,0.245,0.28,0.25,0.256,0.27
NCI-H1793,0.393,0.4,0.415,0.358,0.328,–,–,–,–,–,–,0.339,0.306,0.33,0.329,0.313,0.371,0.314,–,0.371
